Experimental data as given in the NIST ThermoML archive (doi:10.1021/acs.jced.8b00614).

Tests used:
[1] = Boiling temperature at pressure P; conditions: Liquid, Ebulliometric method (Recirculating still)
[2] = Liquid; for mass density: 298.2 K, 101.33 kPa, Vibrating tube method; for vapor or sublimation pressure: Chromatography
[3] = refractive index (Na D-line) (dimensionless); conditions: 298.2 K; 101.33 kPa; Liquid; Standard Abbe refractometry

CCCCCO [pentan-1-ol]
Conditions | Boiling temperature at pressure P [°C] | vapor or sublimation pressure [kPa]
[1], 1.1 kPa | 44.2 | –
[1], 5 kPa | 68.2 | –
[1], 10 kPa | 81.4 | –
[1], 20 kPa | 96 | –
[1], 30 kPa | 105.2 | –
[1], 40 kPa | 112.4 | –
[1], 50 kPa | 118.2 | –
[1], 60 kPa | 123.1 | –
[1], 70 kPa | 127.2 | –
[1], 79.9 kPa | 131.1 | –
[1], 90 kPa | 134.6 | –
[1], 99.7 kPa | 137.7 | –
[2], 317.2 K | – | 1.1
[2], 327.2 K | – | 2.1
[2], 350.2 K | – | 8
[2], 360.2 K | – | 13.3
[2], 370.2 K | – | 21

Conditions | mass density [kg/m3] | refractive index
[2] | 810.9 | –
[3] | – | 1.40764

CC(C)CC(C)(C)C [2,2,4-trimethylpentane]
Conditions | Boiling temperature at pressure P [°C] | vapor or sublimation pressure [kPa]
[1], 5 kPa | 19.4 | –
[1], 10 kPa | 34.0 | –
[1], 20 kPa | 50.7 | –
[1], 30 kPa | 61.4 | –
[1], 40 kPa | 69.5 | –
[1], 50 kPa | 76.1 | –
[1], 60 kPa | 81.8 | –
[1], 70 kPa | 86.7 | –
[1], 80 kPa | 91.1 | –
[1], 90 kPa | 95.2 | –
[1], 99.7 kPa | 98.8 | –
[2], 307.2 K | – | 10
[2], 317.2 K | – | 15.3
[2], 327.2 K | – | 22.8
[2], 350.2 K | – | 51.6
[2], 360.2 K | – | 70.7
[2], 370.2 K | – | 95

Conditions | mass density [kg/m3] | refractive index
[2] | 687.73 | –
[3] | – | 1.3891

COC(C)(C)C [2-methoxy-2-methylpropane]
Conditions | Boiling temperature at pressure P [°C] | vapor or sublimation pressure [kPa]
[1], 20 kPa | 13.0 | –
[1], 30 kPa | 22.2 | –
[1], 40 kPa | 29.5 | –
[1], 50 kPa | 35.2 | –
[1], 60 kPa | 40.2 | –
[1], 70 kPa | 44.5 | –
[1], 79.9 kPa | 48.4 | –
[1], 90 kPa | 51.8 | –
[1], 99.7 kPa | 55.0 | –
[2], 307.2 K | – | 47.7
[2], 317.2 K | – | 68.9
[2], 327.2 K | – | 97.1

Conditions | mass density [kg/m3] | refractive index
[2] | 735.38 | –
[3] | – | 1.36632
